From US10021881B2, “Vaporized administration of pesticides” (priority 2016, dated 2018)

Assay: Thermo Gravity Analysis (TGA) degradation temperature
Assay type: physicochemical
Conditions: for temperature at which degradation began (TGA): ramp 10° C. per minute to 300° C.
Method: This example relates to experiments performed to determine the degradation temperatures of pyrimethanil technical compounds and fungicide samples. In the present example, pyrimethanil compounds from China (compound 1) and Europe (compound 2) were analyzed by Thermo Gravity Analysis (TGA). The pyrimethanil samples were run in both air and nitrogen atmospheres on the Q5000 TGA instrument (TA Instruments) equipped in open platinum pans, and using standard TGA test methods as follows: select gas 1 and 2, data storage on, ramp at 10° C. per minute to 300° C., data storage off, and end method. An isothermal method was also performed according to standard methods.

SMILES: Cc1cc(C)nc(Nc2ccccc2)n1 [compound 1]
- temperature at which degradation began (TGA) (in air): about 120.3 °C
- temperature at which degradation was complete (TGA) (in both air and nitrogen): about 200 °C
- temperature at which degradation began (TGA) (in nitrogen): about 120.6 °C
